# From PMC12624573, “The antigen presentation landscape of cytokine-stressed human pancreatic islets” (Cell reports, 2025)
# Experiments:
# CD4+ T cells from PBMC = assay: IFN-γ ELISpot, PBMC-derived in vitro expanded CD4+ T cell lines; assay type: cell-based, human; parameters: key to T cell recognition by PBMC from a T1D donor (mark E) / T cell recognition by PBMC from a T1D donor: E: T cell recognition by PBMC from a T1D donor was tested and verified; see Figure 5; conditions: for T1D Donor T cell response / non-T1D Donor T cell response: PBMC T cell lines, responding donors/donors tested; for T cell recognition by PBMC from a T1D donor (mark E): tested and verified, see Figure 5; for IFN-γ ELISpot response of expanded CD4 T cells: control donor LSLP-153, line expanded with megapool HPAP-DR3 + SEC-DR3, tested with individual peptides (Figure S5C)
# [1] = test system: islet-derived T cell lines; assay: Cytokine bead array (IFN-γ, TNF-α, IL-10), combined islet-derived T cell lines from donors with T1D; conditions: class I (A2) peptide pools or single peptides, IFNg, TNFa, IL-10 secretion
# Experimental: Live pancreas slices (150–200 μm thick) were provided by nPOD. […] Ten slices were digested with 1 mg/mL collagenase-P (Sigma) in PBS at 37°C with shaking with a magnetic stir bar, with tissue dispersal visually monitored. After washing, islets were enriched by hand-picking, and single-islet-derived T-cell lines generated as described[51] with modifications. Single islets were plated in wells of 96 well round bottom plates (CoStar) on irradiated (5000 rads) allogeneic PBMC with AIM-V media (Thermo Fisher Scientific) supplemented with 2 mM L-glutamine, 5 mM HEPES, and 100 U/ml penicillin and 100 μg/mL streptomycin, 0.1 mM each non-essential amino acids, 1 mM sodium pyruvate, and 5% heat-inactivated human male AB serum (Grifols Diagnostic) with 5 μg/mL each of anti-CD3, anti-CD28 (BioLegend), anti-PD-1 (ligand blocking clone EH12.1, BD Biosciences) and anti-Fas (clone SM1/23: Thermo Fisher Scientific) with 20 U/ml IL-2, and 10 ng/mL IL-15 (R&D), and 50 nM mifepristone (Thermo Fisher Scientific). The lymphocytic outgrowth from individual islets was collected, re-plated, allowed to expand with IL-2 and IL-15, and cryopreserved in early passage (P1-P3). For these experiments, 7–10 T cell lines derived from single islets from each donor were combined. Each combined T cell line contained either >60% CD4 or CD8 T cells. […]
# CD8+ T cells from PBMC = assay: IFN-γ ELISpot, PBMC-derived in vitro expanded CD8+ T cell lines; assay type: cell-based, human; conditions: SEC (Secretory) A2 Peptides Set; PBMC T cell lines; responding donors/donors tested
# [2] = SEC (Secretory) DR3 Peptides Set
sequence,measurement,setting,value
GFPTIYFSPANKKLNPK [compound 154],T1D Donor T cell response,CD4+ T cells from PBMC; HPAP-DR3 Pool Peptides,0/4
same,non-T1D Donor T cell response,CD4+ T cells from PBMC; HPAP-DR3 Pool Peptides,0/4
LNKSINPDEAVAYGAA [peptide 15],T1D Donor T cell response,CD4+ T cells from PBMC; DR3/DQ Set Peptides,1/4
same,non-T1D Donor T cell response,CD4+ T cells from PBMC; DR3/DQ Set Peptides,0/2
KARFAKQPAYTLVDR,T cell recognition by PBMC from a T1D donor (mark E),CD4+ T cells from PBMC; MHC-II peptides,KAR FAKQPAYTL VDR ^ E
APGYLAITKKVAVPY [compound 151],T1D Donor T cell response,CD4+ T cells from PBMC; HPAP-DR3 Pool Peptides,0/4
same,non-T1D Donor T cell response,CD4+ T cells from PBMC; HPAP-DR3 Pool Peptides,1/4
same,IFN-γ ELISpot response of expanded CD4 T cells,CD4+ T cells from PBMC,positive response
QDPELPDKNMFTINRNTGVIS,T cell recognition by PBMC from a T1D donor (mark E),CD4+ T cells from PBMC; MHC-II peptides,QDPELPDKNM FTINRNTGV IS ^ E
"HPQGAWKELDRNY [compound 184, secretory hormone eluted peptide from SCG1, pool SEC DR3]",T1D Donor T cell response,CD4+ T cells from PBMC; [2],0/4
same,non-T1D Donor T cell response,CD4+ T cells from PBMC; [2],1/4
same,IFN-γ ELISpot response of expanded CD4 T cells,CD4+ T cells from PBMC,IFN-γ responses
NPANPAILSEASAPIPHDG [compound 27],T1D Donor T cell response,CD4+ T cells from PBMC; DR3/DQ Set Peptides,0/4
same,non-T1D Donor T cell response,CD4+ T cells from PBMC; DR3/DQ Set Peptides,0/2
"KSIYFVAGL [compound 173, secretory hormone eluted peptide, pool SEC A2]",islet derived T cell lines response to A2-S peptide pools or to single peptides,[1]; donor 6551 lines,donors 6551 and 6578 lines negative
same,islet derived T cell lines response to A2-S peptide pools or to single peptides,[1]; donor 6578 lines,donors 6551 and 6578 lines negative
same,T1D Donor T cell response,CD8+ T cells from PBMC,0/6
same,non-T1D Donor T cell response,CD8+ T cells from PBMC,0/4
KRPAIWIDTGIHSRE [peptide 10],T1D Donor T cell response,CD4+ T cells from PBMC; DR3/DQ Set Peptides,4/4
same,non-T1D Donor T cell response,CD4+ T cells from PBMC; DR3/DQ Set Peptides,2/2
same,Number of donors whose CD4 T cells recognized the peptide (IFN-γ ELISpot),"CD4+ T cells from PBMC; T1D donors, PBMC-derived lines (Figure 5J)",all four donors
same,IFN-γ ELISpot response of expanded CD4+ T cells,"CD4+ T cells from PBMC; control donor LSLP-074, frequencies ∼10-fold lower than for T1D-004 (Figures 5E, 5F, S5B)",responded
VPIDIDKTKVQNIHPVESA [compound 152],T1D Donor T cell response,CD4+ T cells from PBMC; HPAP-DR3 Pool Peptides,0/4
same,non-T1D Donor T cell response,CD4+ T cells from PBMC; HPAP-DR3 Pool Peptides,0/4
"SSPLDNKLNVEDVDSTKN [compound 188, secretory hormone eluted peptide from SCG3, pool SEC DR3]",T1D Donor T cell response,CD4+ T cells from PBMC; [2],0/4
same,non-T1D Donor T cell response,CD4+ T cells from PBMC; [2],1/4
same,IFN-γ ELISpot response of expanded CD4 T cells,CD4+ T cells from PBMC,IFN-γ responses
IDQINTDLNLERSHA [compound 17],T1D Donor T cell response,CD4+ T cells from PBMC; DR3/DQ Set Peptides,0/4
same,non-T1D Donor T cell response,CD4+ T cells from PBMC; DR3/DQ Set Peptides,0/2
"GSEEYRAPRPQSEESWDEED [compound 181, secretory hormone eluted peptide, pool SEC DR3]",T1D Donor T cell response,CD4+ T cells from PBMC; [2],0/4
same,non-T1D Donor T cell response,CD4+ T cells from PBMC; [2],1/4
RQRYEILTPNSIPK,T cell recognition by PBMC from a T1D donor (mark E),CD4+ T cells from PBMC; MHC-II peptides,RQR YEILTPNS IPK ^ E
DLNGDLTATREEF [compound 5],T1D Donor T cell response,CD4+ T cells from PBMC; DR3/DQ Set Peptides,0/4
same,non-T1D Donor T cell response,CD4+ T cells from PBMC; DR3/DQ Set Peptides,0/2
"DNMNDNFLEGEEENELTLN [compound 185, secretory hormone eluted peptide, pool SEC DR3]",T1D Donor T cell response,CD4+ T cells from PBMC; [2],0/4
same,non-T1D Donor T cell response,CD4+ T cells from PBMC; [2],0/4
LNKSINPDEAVAYGAA,T cell recognition by PBMC from a T1D donor,"CD4+ T cells from PBMC; MHC-II peptides, superscript E on the peptide, G = verified with QBL cells",LNKS INPDEAVAY GAA ^ E
YYNLEKDVKQFRRKDS [peptide 3],T1D Donor T cell response,CD4+ T cells from PBMC; DR3/DQ Set Peptides,0/4
same,non-T1D Donor T cell response,CD4+ T cells from PBMC; DR3/DQ Set Peptides,0/2
ETDKEQLTAEAKELRQK,T cell recognition by PBMC from a T1D donor (mark E),CD4+ T cells from PBMC; MHC-II peptides,ETDKEQ LTAEAKELR QK ^ E
